Experimental data reported in ChEMBL document CHEMBL1137571 (J Med Chem, 2007).

Experiments:
[1] = target: T1, Amine oxidase [flavin-containing] A (Homo sapiens, UniProt P21397); assay: Inhibition of human recombinant MAOA expressed in Pichia pastoris
T1 sequence (P21397 whole entry): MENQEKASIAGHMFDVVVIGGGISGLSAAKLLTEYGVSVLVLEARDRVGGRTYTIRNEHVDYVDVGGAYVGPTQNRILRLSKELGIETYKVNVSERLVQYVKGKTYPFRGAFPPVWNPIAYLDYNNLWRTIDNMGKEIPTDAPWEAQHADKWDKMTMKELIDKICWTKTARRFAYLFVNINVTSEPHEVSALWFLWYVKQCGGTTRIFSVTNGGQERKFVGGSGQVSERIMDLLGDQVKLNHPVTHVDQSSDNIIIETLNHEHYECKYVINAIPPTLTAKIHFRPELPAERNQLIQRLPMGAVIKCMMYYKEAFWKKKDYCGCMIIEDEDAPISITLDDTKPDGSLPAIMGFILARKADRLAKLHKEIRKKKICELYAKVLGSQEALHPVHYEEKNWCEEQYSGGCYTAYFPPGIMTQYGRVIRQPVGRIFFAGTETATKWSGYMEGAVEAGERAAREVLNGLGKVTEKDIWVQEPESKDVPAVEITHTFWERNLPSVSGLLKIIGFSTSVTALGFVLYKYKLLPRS

[2] = target: T2, Amine oxidase [flavin-containing] B (Homo sapiens, UniProt P27338); assay: Inhibition of human recombinant MAOB expressed in Pichia pastoris
T2 sequence (P27338 whole entry): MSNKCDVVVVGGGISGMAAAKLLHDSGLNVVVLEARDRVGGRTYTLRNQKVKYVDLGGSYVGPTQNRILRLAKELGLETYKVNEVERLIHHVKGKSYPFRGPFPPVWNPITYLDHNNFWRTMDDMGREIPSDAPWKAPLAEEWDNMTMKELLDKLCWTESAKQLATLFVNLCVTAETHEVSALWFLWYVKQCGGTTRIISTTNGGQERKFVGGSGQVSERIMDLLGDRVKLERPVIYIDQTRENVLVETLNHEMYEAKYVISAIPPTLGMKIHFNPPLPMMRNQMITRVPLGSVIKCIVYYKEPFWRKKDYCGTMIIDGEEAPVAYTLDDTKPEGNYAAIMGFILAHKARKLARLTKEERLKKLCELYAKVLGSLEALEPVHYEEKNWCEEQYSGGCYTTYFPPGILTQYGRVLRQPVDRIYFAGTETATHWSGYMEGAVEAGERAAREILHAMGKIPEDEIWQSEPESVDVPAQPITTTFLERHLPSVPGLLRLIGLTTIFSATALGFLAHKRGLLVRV

Ki [1] | Ki [2] | SMILES
11 µM | 400 nM | O=Cc1cc(=O)oc2cc(OCc3cccc(Cl)c3)ccc12
15.7 µM | 100 nM | CNCc1cc(=O)oc2cc(OCc3cccc(Cl)c3)ccc12
